# According to article PMC6345968, “Structural basis for species-selective targeting of Hsp90 in a pathogenic fungus” (Nature Communications, 2019):
# Where “and” joins values, the source holds several entries; their conditions need not be identical. Identical values can stand only once. Like-named read-outs stand apart in the source and are kept apart here.
# Assays:
# C. albicans Hsp90 NBD = molecular target: T1, C. albicans Hsp90 NBD (Candida albicans, UniProt P46598); test: biochemical; assay type: binding
# T1 construct: C. albicans Hsp90 (E7-K218); made in house; host or cells: E. coli Rosetta2
# T1 sequence (P46598 7-218): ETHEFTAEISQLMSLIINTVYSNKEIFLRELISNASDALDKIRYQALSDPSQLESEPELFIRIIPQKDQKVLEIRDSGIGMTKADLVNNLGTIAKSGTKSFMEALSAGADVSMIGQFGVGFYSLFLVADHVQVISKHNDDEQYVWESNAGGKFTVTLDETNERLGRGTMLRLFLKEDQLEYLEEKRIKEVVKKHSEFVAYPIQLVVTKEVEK
# [1] = molecular target: T2, Hsp90 in C. albicans (SC5314) lysate (Candida albicans, UniProt P46598); test: biochemical; assay type: binding; settings: for FP signal: raw
# T2 construct: endogenous in cells; host or cells: C. albicans SC5314 whole-cell lysate
# T2 sequence (P46598 whole entry): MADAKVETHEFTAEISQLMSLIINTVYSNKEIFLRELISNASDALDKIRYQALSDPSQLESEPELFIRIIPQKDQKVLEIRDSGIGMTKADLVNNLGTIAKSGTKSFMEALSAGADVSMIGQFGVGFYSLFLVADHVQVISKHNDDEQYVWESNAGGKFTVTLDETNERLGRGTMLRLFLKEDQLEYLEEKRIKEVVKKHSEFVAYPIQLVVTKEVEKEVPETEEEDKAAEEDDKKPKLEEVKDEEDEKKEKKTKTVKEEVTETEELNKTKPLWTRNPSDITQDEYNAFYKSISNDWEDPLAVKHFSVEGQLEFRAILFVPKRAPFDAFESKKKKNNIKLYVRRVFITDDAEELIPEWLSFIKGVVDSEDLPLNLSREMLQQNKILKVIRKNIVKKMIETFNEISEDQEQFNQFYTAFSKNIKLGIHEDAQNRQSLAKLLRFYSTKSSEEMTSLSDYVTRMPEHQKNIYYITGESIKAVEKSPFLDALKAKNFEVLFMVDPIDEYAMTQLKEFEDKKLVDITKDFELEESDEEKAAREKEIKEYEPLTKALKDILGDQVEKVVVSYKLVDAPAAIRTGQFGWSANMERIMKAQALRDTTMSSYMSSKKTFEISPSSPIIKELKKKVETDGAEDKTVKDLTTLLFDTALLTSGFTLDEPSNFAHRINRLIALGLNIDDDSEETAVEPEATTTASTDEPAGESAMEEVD
# Hsp90 in 3T3 lysate = test: FP competition in whole-cell lysate; assay type: binding, mouse; settings: quiescent 3T3 cells, FP
# Description: After vortexing, cell lysate was frozen at −80 °C for 2 h, followed by thawing on ice. The vortex-freeze-thaw step was repeated. […] Aliquots were thawed immediately prior to use.
# Hsp90 in HEPG2 lysate = settings: for FP signal (raw) / FP signal: HepG2 lysate; for FP signal: raw
# human Hsp90 NBD = human Hsp90 NBD (Homo sapiens, UniProt P08238); test: biochemical
# Sequence of human Hsp90 NBD (P08238 1-223): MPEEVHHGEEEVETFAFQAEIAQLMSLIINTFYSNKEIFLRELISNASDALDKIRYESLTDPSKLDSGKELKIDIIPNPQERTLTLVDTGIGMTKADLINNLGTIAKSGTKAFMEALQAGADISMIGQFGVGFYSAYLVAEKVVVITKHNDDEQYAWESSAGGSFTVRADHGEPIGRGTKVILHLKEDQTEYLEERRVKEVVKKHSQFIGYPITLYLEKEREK
# human Grp94 NBD = human Grp94 NBD (Homo sapiens, UniProt P14625); test: biochemical
# Sequence of human Grp94 NBD (P14625 63-337): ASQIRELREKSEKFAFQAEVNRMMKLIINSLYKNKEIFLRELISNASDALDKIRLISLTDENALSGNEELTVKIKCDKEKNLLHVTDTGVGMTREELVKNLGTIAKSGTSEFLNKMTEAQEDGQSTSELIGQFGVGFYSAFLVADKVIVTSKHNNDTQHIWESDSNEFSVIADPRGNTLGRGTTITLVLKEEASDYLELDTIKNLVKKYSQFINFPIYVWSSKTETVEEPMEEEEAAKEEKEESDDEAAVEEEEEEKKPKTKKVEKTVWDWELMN
# [2] = SC5314 lysate, 0.457 nM compound
# [3] = SC5314 lysate, 1.372 nM compound
# [4] = SC5314 lysate, 4.115 nM compound
# [5] = SC5314 lysate, 12.346 nM compound
# [6] = SC5314 lysate, 37.037 nM compound
# [7] = SC5314 lysate, 111.111 nM compound
# [8] = SC5314 lysate, 333.333 nM compound
# [9] = SC5314 lysate, 1000 nM compound
# [10] = SC5314 lysate, 3000 nM compound
# [11] = I50, single experiments Expt 1-3
# [12] = IC50 (Equation 16), corrected I50, single experiments, unit inferred
# [13] = Inhibitor Ki, single experiments Expt 1-3
# [14] = Ki, purified NBD, Cy3-GdA probe, mean (± SEM) of 3 experiments
compound,measurement,setting,value
COc1ccc(CON=C2C=CC=CC3OC3CC(C)OC(=O)c3c(O)cc(O)cc3C2)cc1 (centres unmarked) [CMLD013075],IC50,"C. albicans Hsp90 NBD; corrected I50, single experiments, unit inferred, read-out: IC50 (Equation 16)",0.0773 µM and 0.0788 µM and 0.044 µM
same,Ki,"C. albicans Hsp90 NBD; purified NBD, Cy3-GdA probe, mean (± SEM) of 3 experiments, read-out: Ki",0.0077 µM
same,selectivity for fungal Hsp90 NBD over human Grp94 NBD,"C. albicans Hsp90 NBD; purified NBDs, FP",~ 5 fold and 5 fold
same,selectivity for fungal Hsp90 NBD over human Hsp90 NBD,"C. albicans Hsp90 NBD; purified NBDs, FP",~ 28 fold and > 25 fold
same,IC50,"C. albicans Hsp90 NBD; single experiments Expt 1-3, read-out: I50",0.0823 µM and 0.0838 µM and 0.0478 µM
same,Ki,"C. albicans Hsp90 NBD; single experiments Expt 1-3, read-out: Inhibitor Ki",8.8 nM (2×) and 5.5 nM
same,normalized fungal selectivity in lysates,"[1]; C. albicans SC5314 vs HEPG2 lysate, FP",4.6 fold
same,relative binding affinity in fungal vs mammalian lysates,"[1]; C. albicans vs HEPG2 and 3T3 lysates, FP",higher
same,EC50,"[1]; EC50, SC5314 lysate, not normalized, oxime panel experiment 220817",0.505 µM
same,Ratio re. GdA,"[1]; EC50 relative to GdA, SC5314 lysate",29.6649
same,FP signal (raw),"[1]; SC5314 lysate, 0.457 nM",200
same,FP signal relative to 0 nM,[1]; [2],0.9709
same,FP signal,[1]; [2],200
same,FP signal (raw),"[1]; SC5314 lysate, 1.372 nM",200
same,FP signal relative to 0 nM,[1]; [3],0.9709
same,FP signal,[1]; [3],200
same,FP signal (raw),"[1]; SC5314 lysate, 4.115 nM",199
same,FP signal relative to 0 nM,[1]; [4],0.966
same,FP signal,[1]; [4],199
same,FP signal (raw),"[1]; SC5314 lysate, 12.346 nM",199
same,FP signal relative to 0 nM,[1]; [5],0.966
same,FP signal,[1]; [5],199
same,FP signal (raw),"[1]; SC5314 lysate, 37.037 nM",196
same,FP signal relative to 0 nM,[1]; [6],0.9515
same,FP signal,[1]; [6],196
same,FP signal (raw),"[1]; SC5314 lysate, 111.111 nM",182
same,FP signal relative to 0 nM,[1]; [7],0.8835
same,FP signal,[1]; [7],182
same,FP signal (raw),"[1]; SC5314 lysate, 333.333 nM",146
same,FP signal relative to 0 nM,[1]; [8],0.7087
same,FP signal,[1]; [8],146
same,FP signal (raw),"[1]; SC5314 lysate, 1000 nM",69
same,FP signal relative to 0 nM,[1]; [9],0.335
same,FP signal,[1]; [9],69
same,FP signal (raw),"[1]; SC5314 lysate, 3000 nM",40
same,FP signal relative to 0 nM,[1]; [10],0.1942
same,FP signal,[1]; [10],40
same,HepG2/SC5314,"[1]; ratio of GdA-normalized EC50s, human over fungal lysate",4.5595
same,HepG2/SC5314,"[1]; ratio of GdA-relative EC50 ratios, HepG2 over SC5314",4.5595
same,relative binding affinity in 3T3 lysate vs HEPG2 lysate,Hsp90 in 3T3 lysate,lower in 3T3 lysate than HEPG2 lysate
same,Ratio rel. GdA (HepG2),Hsp90 in HEPG2 lysate; EC50 / EC50 of GdA in HepG2 lysate,135.257
same,Ratio rel. GdA (HepG2),"Hsp90 in HEPG2 lysate; EC50 relative to GdA, HEPG2 lysate",135.257
same,"FP signal, Fxn Control","Hsp90 in HEPG2 lysate; HEPG2 lysate, log concentration 0.137354 (1.372 nM)",0.9857
same,"FP signal, Fxn Control","Hsp90 in HEPG2 lysate; HEPG2 lysate, log concentration 0.61437 (4.115 nM)",0.9905
same,"FP signal, Fxn Control","Hsp90 in HEPG2 lysate; HEPG2 lysate, log concentration 1.09153 (12.346 nM)",1
same,"FP signal, Fxn Control","Hsp90 in HEPG2 lysate; HEPG2 lysate, log concentration 1.56864 (37.037 nM)",1.005
same,"FP signal, Fxn Control","Hsp90 in HEPG2 lysate; HEPG2 lysate, log concentration 2.04576 (111.111 nM)",0.9905
same,"FP signal, Fxn Control","Hsp90 in HEPG2 lysate; HEPG2 lysate, log concentration 2.52288 (333.333 nM)",0.9762
same,"FP signal, Fxn Control","Hsp90 in HEPG2 lysate; HEPG2 lysate, log concentration 3 (1000 nM)",0.8333
same,"FP signal, Fxn Control","Hsp90 in HEPG2 lysate; HEPG2 lysate, log concentration 3.47712 (3000 nM)",0.5286
same,"FP signal, Fxn Control","Hsp90 in HEPG2 lysate; HEPG2 lysate, log concentration -0.340084 (0.457 nM)",0.9857
same,FP signal (raw),Hsp90 in HEPG2 lysate; 0.457 nM,207
same,FP signal,Hsp90 in HEPG2 lysate; 0.457 nM compound,207
same,FP signal (raw),Hsp90 in HEPG2 lysate; 1.372 nM,207
same,FP signal,Hsp90 in HEPG2 lysate; 1.372 nM compound,207
same,FP signal (raw),Hsp90 in HEPG2 lysate; 4.115 nM,208
same,FP signal,Hsp90 in HEPG2 lysate; 4.115 nM compound,208
same,FP signal (raw),Hsp90 in HEPG2 lysate; 12.346 nM,210
same,FP signal,Hsp90 in HEPG2 lysate; 12.346 nM compound,210
same,FP signal (raw),Hsp90 in HEPG2 lysate; 37.037 nM,211
same,FP signal,Hsp90 in HEPG2 lysate; 37.037 nM compound,211
same,FP signal (raw),Hsp90 in HEPG2 lysate; 111.111 nM,208
same,FP signal,Hsp90 in HEPG2 lysate; 111.111 nM compound,208
same,FP signal (raw),Hsp90 in HEPG2 lysate; 333.333 nM,205
same,FP signal,Hsp90 in HEPG2 lysate; 333.333 nM compound,205
same,FP signal (raw),Hsp90 in HEPG2 lysate; 1000 nM,175
same,FP signal,Hsp90 in HEPG2 lysate; 1000 nM compound,175
same,FP signal (raw),Hsp90 in HEPG2 lysate; 3000 nM,111
same,FP signal,Hsp90 in HEPG2 lysate; 3000 nM compound,111
same,IC50,human Hsp90 NBD; [11],1.65 µM and 1.63 µM and 1.25 µM
same,IC50,human Hsp90 NBD; [12],1.65 µM and 1.62 µM and 1.24 µM
same,Ki,human Hsp90 NBD; [13],0.237 µM and 0.236 µM and 0.181 µM
same,Ki,human Hsp90 NBD; [14],0.218 µM
same,IC50,human Grp94 NBD; [11],0.429 µM and 0.49 µM and 0.261 µM
same,IC50,human Grp94 NBD; [12],0.426 µM and 0.486 µM and 0.257 µM
same,Ki,human Grp94 NBD; [13],0.0436 µM and 0.0489 µM and 0.0264 µM
same,Ki,human Grp94 NBD; [14],0.0396 µM
